Non-standard residues stand in square brackets, D forms with d. No end group written: not given here. Gla = N[C@@H](CC(C(=O)O)C(=O)O)C(=O)O
Tests used:
[1] = Binding of VEGF-OCN and VEGF-mimic to HA particle / HA slab
Protocol: To measure the binding efficiency of modular peptides to the HA-coated PLG films and to gain preliminary insight into the properties that influence modular peptide immobilization, we first exposed 1 cm^2 HA-coated PLG films to PBS solutions containing 500 μg (1 mg/ml) of 5(6) FAM-conjugated eBMP-2, eBGu1, eBGu3, eBGa1, or eBGa3 modular peptide solution (See Table 1 for definitions of these abbreviations). The films were incubated in peptide solutions with constant agitation for 4 hours at 37° C., and the amount of free peptide remaining was determined by measuring the fluorescence emission of the solution (excitation: 494 nm; emission 519 nm) using a Synergy HT Multi-Detection Microplate Reader (BioTek, Winooski, Vt.), and comparing this emission to standard samples with known concentrations of 5(6)-FAM. To further characterize surface immobilization of the peptide with the highest binding efficiency—the eBGa3 peptide—1 cm^2 HA-coated films were incubated in various concentrations (50-750 μM) of 5(6)-FAM-conjugated eBGa3 peptide for 4 hours with constant agitation at 37° C. The amount of peptide bound to HA-coated film was again determined by fluorescence analysis, as described above.
The binding behavior of the peptides (both modular peptide, VEGF-OCN (SEQ ID NO:18), and VEGF-mimic) were analyzed and compared as described above. The amount of bound VEGF-OCN on the HA particle increased with peptide concentration and reached saturation at 15 μM (FIG. 8A).

[2] = system: mouse yolk sac endothelial C166-GFP cells; experiment: C166-GFP cell proliferation with soluble peptides (CYQUANT); type: cell-based; settings: soluble peptide, 48 hours of stimulation, compared to a control
Protocol: To determine biological activity of VEGF portion for promoting cell proliferation, mouse yolk sac endothelial C166-GFP cells were seeded at a density of 3.12×10^3 cells/cm^2 (1×10^3 cells per well) in 96-well plate, allowed to attach for six hours, and then stimulated with either VEGF-OCN or VEGF-mimic After 48 hours of stimulation, optical micrographs were taken using Olympus IX-51 microscope and cell numbers were determined by CYQUANT assay.

[3] = system: mouse yolk sac endothelial C166-GFP cells; experiment: C166-GFP cell proliferation on peptide-treated HA slabs (CYQUANT); type: cell-based; settings: peptide-treated HA slab, 2-day culture, compared to control
Protocol: Cells were again seeded at a density of 2×10^4 cells/cm^2 (4×10^4 cells per well) in 24-well plate. Prior to seeding, HA slabs (1 cm×1 cm) were incubated in peptide solution (PBS) for four hours at 37° C. and copiously rinsed with deionized water, and then placed in a well of the 24-well plate. After 1-day culture, cells were treated with 2 μM calcein AM solution, and imaged using Olympus IX-51 microscope.
Additionally, a cell number count of the C166-GFP cells as cultured in the presence of VEGF-OCN or VEGF mimic was determined For the cell count, cells were seeded at a density of 5×10^3 cells/cm^2 (1×10^4 cells per well) in a 24-well plate. After 2-day culture, cells were detached from the HA slab and cell number was assessed using CYQUANT assay.

hMSCs [4] = experiment: Mineralized tissue formation by hMSCs (Alizarin Red-S staining); type: cell-based, human; settings: soluble peptide (50 μg in 500 μl) with osteogenic supplements, hMSCs on TCP, day 20
Protocol: (§1) hMSCs (Cambrex, Walkersville, Md., passages 5-6) were cultured in mesenchymal stem cell growth medium (MSCGM: Cambrex) consisting of MSC Basal Medium supplemented with 10% fetal bovine serum, L-glutamine, 100 units/ml penicillin, and 0.1 mg/ml streptomycin. 2.5×10^4 hMSCs were seeded onto either tissue culture-treated polystyrene (TCP) or four different types of experimental substrates (1 cm^2) (PLG, HA-coated PLG, eBGu3-treated HA coating, or eBGa3-treated HA coating). hMSCs were allowed to attach to each substrate overnight, then cultured in MSCGM with osteogenic culture supplements (OS) (0.1 μM dexamethasone, 50 μg/ml ascorbic acid, and 10 mM β-glycerophosphate) for 24 days. The effects of soluble peptides included in culture medium were evaluated by adding 50 μg of eBGu3 or eBGa3 peptides to hMSC cultures on TCP in 500 μl of medium with or without osteogenic culture supplements. In each experimental and control sample, whole volume medium changes were performed every 4 days by replacement with fresh medium and collected medium was used for BMP-2 and OCN ELISA assays.
Characterization of mineralized tissue growth was performed via Alizarin Red-S (ARS) staining at day 20. […] For quantification of staining, 400 μl 10% (v/v) acetic acid was added to each well for 30 minutes with shaking. […] Aliquots (100 μl) of the supernatant were read in triplicate at 405 nm in 96-well plate reader.

hMSCs [5] = experiment: Alkaline phosphatase (ALP) activity in hMSCs; type: cell-based, human; settings: soluble peptide (50 μg in 500 μl) with osteogenic supplements, hMSCs on TCP, day 12
Protocol: as §1, with “In each experimental and control sample, whole volume medium changes were performed every 4 days by replacement with fresh medium and collected medium was used for BMP-2 and OCN ELISA assays.” left out
The biological activity of modular peptides was initially assayed by their ability to enhance ALP activity in hMSCs. […] ALP activity was measured at 405 nm, and calculated as the ratio of p-nitrophenol released to total DNA concentration (nmol/min/μg DNA). To determine the amount of total DNA in each well, the cell nuclei were disrupted by addition of the aforementioned lysis buffer followed by centrifugation, and quantified using the CyQUANT Assay Kit (Molecular Probes, Eugene, Oreg.).

peptide concentration at which bound amount reached saturation ([1]; HA particle)	time to complete binding to HA particle ([1]; HA particle)	amount bound to HA slab ([1]; HA slab, qualitative comparison)	Substance	cell number [2]	cell number [3]	effect on mineralized tissue formation (hMSCs [4])	effect on ALP activity (hMSCs [5])
15 µM	completed within five minutes		KLTWQELYQLKYKGI-GGGAAAA-γEPRRγEVAγEL (KLTWQELYQLKYKGIGGGAAAA[Gla]PRR[Gla]VA[Gla]L) [VEGF-OCN]	increase in cell number to the similar extent when compared to a control	promoted cell proliferation		
		much less than that of VEGF-OCN	KLTWQELYQLKYKGI [VEGF-mimic, First synthesized by Pedon, et al., inspired by the VEGF helical region, reference compound]	increase in cell number to the similar extent when compared to a control			
			KIPKASSVPTELSAISTLYLAAAAγEPRRγEVAγEL (KIPKASSVPTELSAISTLYLAAAA[Gla]PRR[Gla]VA[Gla]L-NH2; N-terminus assumed; SMILES CC[C@H](C)[C@H](NC(=O)[C@H](C)NC(=O)[C@H](CO)NC(=O)[C@H](CC(C)C)NC(=O)[C@H](CCC(=O)O)NC(=O)[C@@H](NC(=O)[C@@H]1CCCN1C(=O)[C@@H](NC(=O)[C@H](CO)NC(=O)[C@H](CO)NC(=O)[C@H](C)NC(=O)[C@H](CCCCN)NC(=O)[C@@H]1CCCN1C(=O)[C@@H](NC(=O)[C@@H](N)CCCCN)[C@@H](C)CC)C(C)C)[C@@H](C)O)C(=O)N[C@@H](CO)C(=O)N[C@H](C(=O)N[C@@H](CC(C)C)C(=O)N[C@@H](Cc1ccc(O)cc1)C(=O)N[C@@H](CC(C)C)C(=O)N[C@@H](C)C(=O)N[C@@H](C)C(=O)N[C@@H](C)C(=O)N[C@@H](C)C(=O)N[C@@H](CC(C(=O)O)C(=O)O)C(=O)N1CCC[C@H]1C(=O)N[C@@H](CCCNC(=N)N)C(=O)N[C@@H](CCCNC(=N)N)C(=O)N[C@@H](CC(C(=O)O)C(=O)O)C(=O)N[C@H](C(=O)N[C@@H](C)C(=O)N[C@@H](CC(C(=O)O)C(=O)O)C(=O)N[C@@H](CC(C)C)C(N)=O)C(C)C)[C@@H](C)O) [eBGa3]			significantly increased	significantly increased ALP activity
			KIPKASSVPTELSAISTLYLAAAAEPRREVAEL [eBGu3]			no significant differences between the positive effects of eBGu3 and eBGa3	no significant differences between the positive effects of eBGu3 and eBGa3
